In patent publication US10770169B2, “Method of providing a treatment to a subject based on a dynamic pathway map” (THE REGENTS OF THE UNIVERSITY OF CALIFORNIA, priority 2010, dated 2020):

Assays:
[1] = tested on: panel of 55 breast cancer cell lines; experiment: Cell growth inhibition assay (Cell Titer Glo, 72 h, 9 doses; GI50, TGI, LC50); assay type: cell-based, human; conditions: value is the negative log10 of mol/L
[2] = tested on: luminal, basal, claudin-low and ERBB2AMP breast cancer cell lines; experiment: Associations of clinically relevant subtypes and response (non-parametric ANOVA or t-test on GI50 ranks); assay type: cell-based, human; conditions: Table 6; most sensitive subtype, FDR p<0.20
In short: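 Significance was set at FDR p<0.20 after combining p-values across three test sets. Subtype–response associations came from rank-based non-parametric ANOVA or t-tests on GI50. For three-class comparisons, post-hoc tests of each group against the rest identified the most sensitive group, with FDR correction.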

Compound CC(/C=C/C(=O)NO)=C\[C@@H](C)C(=O)c1ccc(N(C)C)cc1 [Trichostatin A] has a GI50 ([1]; 600MPE cell line, censored GI50 values) of 5.18, a GI50 ([1]; AU565 cell line, censored GI50 values) of 5.43 and a GI50 ([1]; BT20 cell line, censored GI50 values) of 4.81. It also gave a GI50 ([1]; BT474 cell line, censored GI50 values) of 5.00, a GI50 ([1]; BT483 cell line, censored GI50 values) of 5.00 and a GI50 ([1]; BT549 cell line, censored GI50 values) of 5.13. The GI50 ([1]; CAMA1 cell line, censored GI50 values) was 5.57, the GI50 ([1]; HCC38 cell line, censored GI50 values) was 5.22 and the GI50 ([1]; HCC70 cell line, censored GI50 values) was 4.84. The GI50 ([1]; HCC202 cell line, censored GI50 values) was 6.04, the GI50 ([1]; HCC1143 cell line, censored GI50 values) was 4.77 and the GI50 ([1]; HCC1187 cell line, censored GI50 values) was 5.32. For the same compound, the GI50 ([1]; HCC1395 cell line, censored GI50 values) was 4.50, the GI50 ([1]; HCC1419 cell line, censored GI50 values) was 4.85 and the GI50 ([1]; HCC1428 cell line, censored GI50 values) was 5.73. For the same compound, the GI50 ([1]; HCC1500 cell line, censored GI50 values) was 4.82, the GI50 ([1]; HCC1806 cell line, censored GI50 values) was 4.97 and the GI50 ([1]; HCC1937 cell line, censored GI50 values) was 4.82. The GI50 ([1]; HCC1954 cell line, censored GI50 values) was 4.95, the GI50 ([1]; HCC2185 cell line, censored GI50 values) was 4.79 and the GI50 ([1]; HCC3153 cell line, censored GI50 values) was 4.62. For the same compound, the GI50 ([1]; LY2 cell line, censored GI50 values) was 4.86, the GI50 ([1]; MCF7 cell line, censored GI50 values) was 5.16 and the GI50 ([1]; MDAMB134VI cell line, censored GI50 values) was 5.17. The GI50 ([1]; MDAMB157 cell line, censored GI50 values) was 4.68, the GI50 ([1]; MDAMB175VII cell line, censored GI50 values) was 5.23 and the GI50 ([1]; MDAMB231 cell line, censored GI50 values) was 5.26. For the same compound, the GI50 ([1]; MDAMB361 cell line, censored GI50 values) was 5.09, the GI50 ([1]; MDAMB415 cell line, censored GI50 values) was 4.90 and the GI50 ([1]; MDAMB436 cell line, censored GI50 values) was 4.67. For the same compound, the GI50 ([1]; MDAMB453 cell line, censored GI50 values) was 5.23, the GI50 ([1]; MDAMB468 cell line, censored GI50 values) was 4.85 and the GI50 ([1]; SKBR3 cell line, censored GI50 values) was 5.21. The GI50 ([1]; SUM52PE cell line, censored GI50 values) was 5.57, the GI50 ([1]; SUM149PT cell line, censored GI50 values) was 5.14 and the GI50 ([1]; SUM159PT cell line, censored GI50 values) was 5.23. It also gave a GI50 ([1]; SUM185PE cell line, censored GI50 values) of 4.76, a GI50 ([1]; SUM225CWN cell line, censored GI50 values) of 4.85 and a GI50 ([1]; SUM1315MO2 cell line, censored GI50 values) of 4.31. It also gave a GI50 ([1]; T47D cell line, censored GI50 values) of 5.44, a GI50 ([1]; UACC812 cell line, censored GI50 values) of 5.04 and a GI50 ([1]; UACC893 cell line, censored GI50 values) of 5.54. It also gave a GI50 ([1]; ZR75B cell line, censored GI50 values) of 5.30, a GI50 ([1]; ZR751 cell line, censored GI50 values) of 4.74 and a GI50 ([1]; cell line 600MPE) of 5.18. For the same compound, the GI50 ([1]; cell line AU565) was 5.43, the GI50 ([1]; cell line BT20) was 4.81 and the GI50 ([1]; cell line BT474) was 5.00. It also gave a GI50 ([1]; cell line BT483) of 5.00, a GI50 ([1]; cell line BT549) of 5.13 and a GI50 ([1]; cell line CAMA1) of 5.57. For the same compound, the GI50 ([1]; cell line HCC38) was 5.22, the GI50 ([1]; cell line HCC70) was 4.84 and the GI50 ([1]; cell line HCC202) was 6.04. For the same compound, the GI50 ([1]; cell line HCC1143) was 4.77, the GI50 ([1]; cell line HCC1187) was 5.32 and the GI50 ([1]; cell line HCC1395) was 4.50. The GI50 ([1]; cell line HCC1419) was 4.85, the GI50 ([1]; cell line HCC1428) was 5.73 and the GI50 ([1]; cell line HCC1500) was 4.82. The GI50 ([1]; cell line HCC1806) was 4.97, the GI50 ([1]; cell line HCC1937) was 4.82 and the GI50 ([1]; cell line HCC1954) was 4.95. The GI50 ([1]; cell line HCC2185) was 4.79, the GI50 ([1]; cell line HCC3153) was 4.62 and the GI50 ([1]; cell line LY2) was 4.86. For the same compound, the GI50 ([1]; cell line MCF7) was 5.16, the GI50 ([1]; cell line MDAMB134V) was 5.17 and the GI50 ([1]; cell line MDAMB157) was 4.68. It also gave a GI50 ([1]; cell line MDAMB175V) of 5.23, a GI50 ([1]; cell line MDAMB231) of 5.26 and a GI50 ([1]; cell line MDAMB361) of 5.09. For the same compound, the GI50 ([1]; cell line MDAMB415) was 4.90, the GI50 ([1]; cell line MDAMB436) was 4.67 and the GI50 ([1]; cell line MDAMB453) was 5.23. For the same compound, the GI50 ([1]; cell line MDAMB468) was 4.85, the GI50 ([1]; cell line SKBR3) was 5.21 and the GI50 ([1]; cell line SUM52PE) was 5.57. For the same compound, the GI50 ([1]; cell line SUM149PT) was 5.14, the GI50 ([1]; cell line SUM159PT) was 5.23 and the GI50 ([1]; cell line SUM185PE) was 4.76. For the same compound, the GI50 ([1]; cell line SUM225CWN) was 4.85, the GI50 ([1]; cell line SUM1315MO) was 4.31 and the GI50 ([1]; cell line T47D) was 5.44. It also gave a GI50 ([1]; cell line UACC812) of 5.04, a GI50 ([1]; cell line UACC893) of 5.54 and a GI50 ([1]; cell line ZR75B) of 5.30. The GI50 ([1]; cell line ZR751) was 4.74 and the Subtype specificity [2] was “Luminal”.
